“And” between values parts separate entries of the source, which are not always exact repeats. Equal entries are not always repeated. Where two headings read alike, the source gives them in different places.
Assays:
[1] = target: T1, bacterial Vibrio cholerae neuraminidase (VCNA) (Vibrio cholerae serotype O1, UniProt P0C6E9); test: biochemical; conditions: mean ± SD, n = 3–6
T1 construct: purchased Hoffmann La Roche, Basel, Switzerland

[2] = target: viral influenza A/California/04/2009 (H1N1) neuraminidase (H1N1-NA) (Influenza A virus (A/California/04/2009(H1N1)), UniProt C3W5S3); test: biochemical; type: biochemical
Ruminococcus gnavus NA = conditions: cited from earlier work
[3] = target: Streptococcus pneumoniae NA NanA; conditions: cited from earlier work
bacterial VCNA = target: T2, bacterial VCNA (Vibrio cholerae serotype O1, UniProt P0C6E9); test: biochemical
T2 construct: purchased Hoffmann La Roche, Basel, Switzerland
T2 sequence (P0C6E9 25-781): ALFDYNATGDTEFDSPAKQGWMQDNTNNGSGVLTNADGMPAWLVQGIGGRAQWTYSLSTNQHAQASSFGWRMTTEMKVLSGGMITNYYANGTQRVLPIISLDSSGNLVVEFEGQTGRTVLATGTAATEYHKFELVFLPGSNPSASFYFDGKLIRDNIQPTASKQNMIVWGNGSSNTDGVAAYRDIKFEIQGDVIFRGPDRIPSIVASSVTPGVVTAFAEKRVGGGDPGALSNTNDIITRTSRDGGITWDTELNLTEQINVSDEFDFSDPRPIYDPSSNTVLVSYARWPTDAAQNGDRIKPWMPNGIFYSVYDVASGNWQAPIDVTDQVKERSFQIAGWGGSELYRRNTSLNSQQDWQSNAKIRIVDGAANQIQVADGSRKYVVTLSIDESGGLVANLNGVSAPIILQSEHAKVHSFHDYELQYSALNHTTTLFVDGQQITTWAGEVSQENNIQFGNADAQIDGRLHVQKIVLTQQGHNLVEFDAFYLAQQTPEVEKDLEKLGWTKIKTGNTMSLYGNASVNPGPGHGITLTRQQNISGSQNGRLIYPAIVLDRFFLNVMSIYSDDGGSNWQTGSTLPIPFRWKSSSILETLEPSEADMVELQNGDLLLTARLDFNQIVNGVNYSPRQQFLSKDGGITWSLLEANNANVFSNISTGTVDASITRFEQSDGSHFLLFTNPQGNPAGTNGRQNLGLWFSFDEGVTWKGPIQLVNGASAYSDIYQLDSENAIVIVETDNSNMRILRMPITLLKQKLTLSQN
Description: The median–effect concentration (Dm, a parameter analogous to the IC50 value indicating potency), the slope of the concentration–effect relationship (m, the dynamic order or the shape of dose–effect curve), and the linear regression correlation coefficient (r, a measure of data quality) were determined from the median–effect plots.
The concentration–efficiency curves of the test samples were transformed into the double-logarithmic mean action diagram (shape (m), intercepts and regression coefficients were used to determine the median effect dose Dm). Dm= 10^−(b/m)
Fraction affected (fa) and fraction unaffected (fu) by the concentration D were calculated by the median effect equation [27]: fa/fu= (D/Dm)^m
Dm is the concentration required to produce the median effect.

T1 sequence (P0C6E9 25-781): as above

| SMILES | IC50 [1] | IC50 ([2]; IC50 (Viral)) | further results |
| --- | --- | --- | --- |
| O=C1O[C@H]2[C@H](OC(=O)c3cc(O)c(O)c(O)c3)[C@@H](OC(=O)c3cc(O)c(O)c4c3[C@@H]3C1=CC(=O)[C@](O)(O4)C3(O)O)[C@@H]1OC(=O)c3cc(O)c(O)c(O)c3-c3c(cc(O)c(O)c3O)C(=O)OC[C@H]2O1 [carpinusin] | 138 µM | – | – |
| O=C1OC[C@@H](O)[C@H]([C@@H]2OC(=O)c3cc(O)c(O)c(O)c3-c3c(O)c(O)c(O)c4c3C(=O)O[C@H]2[C@@H]4O)OC(=O)c2cc(O)c(O)c(O)c2-c2c1cc(O)c(O)c2O [casuariin] | 236 µM | – | – |
| O=C(O[C@H]1Cc2c(O)cc(O)cc2O[C@@H]1c1ccc(O)c(O)c1)c1cc(O)c(O)c(O)c1 [catechin-3-O-gallate] | 54.3 µM and 55 µM | 1950 µM | – |
| Oc1cc(O)c2c(c1)O[C@H](c1ccc(O)c(O)c1)[C@@H](O)C2 [catechin] | 2050 µM | 1070 µM and 1080 µM | – |
| O=C(O[C@@H]1Cc2c(O)cc(O)cc2O[C@@H]1c1ccc(O)c(O)c1)c1cc(O)c(O)c(O)c1 [epicatechin-3-O-gallate] | 210 µM and 211 µM | 1910 µM | – |
| Oc1cc(O)c2c(c1)O[C@H](c1ccc(O)c(O)c1)[C@H](O)C2 [epicatechin] | 2310 µM | 1050 µM | – |
| O=C(O[C@@H]1Cc2c(O)cc(O)cc2O[C@@H]1c1cc(O)c(O)c(O)c1)c1cc(O)c(O)c(O)c1 [epigallocatechin-3-O-gallate] | 63.3 µM and 64 µM | 1560 µM | – |
| Oc1cc(O)c2c(c1)O[C@H](c1cc(O)c(O)c(O)c1)[C@H](O)C2 [epigallocatechin] | 1950 µM and 1960 µM | 1740 µM | – |
| O=C(O[C@H]1Cc2c(O)cc(O)cc2O[C@@H]1c1cc(O)c(O)c(O)c1)c1cc(O)c(O)c(O)c1 [gallocatechin-3-O-gallate] | 24 µM and 25 µM | 395 µM and 396 µM | – |
| Oc1cc(O)c2c(c1)O[C@H](c1cc(O)c(O)c(O)c1)[C@@H](O)C2 [gallocatechin] | 1970 µM | 1790 µM | – |
| O=C1O[C@H]2[C@@H]3OC(=O)c4cc(O)c(O)c(O)c4-c4c(cc(O)c(O)c4O)C(=O)OC[C@H]2O[C@@H](OC(=O)c2cc(O)c(O)c(O)c2)[C@@H]3OC(=O)c2cc(O)c(O)c3c2[C@@H]2C1=CC(=O)[C@](O)(O3)C2(O)O [geraniin] | 134 µM and 135 µM | – | – |
| O=C1O[C@H]2[C@H](O)[C@@H](OC(=O)c3cc(O)c(O)c4c3[C@@H]3C1=CC(=O)[C@](O)(O4)C3(O)O)[C@@H]1OC(=O)c3cc(O)c(O)c(O)c3-c3c(cc(O)c(O)c3O)C(=O)OC[C@H]2O1 [granatin A] | 155 µM and 158 µM | – | – |
| CCC(CC)O[C@@H]1C=C(C(=O)O)C[C@H](N)[C@H]1NC(C)=O [oseltamivir carboxylate] | – | – | IC50 (Ruminococcus gnavus NA): 30 µM; Ki [3]: 1.77 µM |
| O=C(OCC1OC(OC(=O)c2cc(O)c(O)c(O)c2)C(OC(=O)c2cc(O)c(O)c(O)c2)C(OC(=O)c2cc(O)c(O)c(O)c2)C1OC(=O)c1cc(O)c(O)c(O)c1C1c2c(O)c(O)c(O)c3c2C(=O)OC1C(C1OC(=O)c2cc(O)c(O)c(O)c2-c2c(cc(O)c(O)c2O)C(=O)OCC1O)OC(=O)c1cc(O)c(O)c(O)c1-3)c1cc(O)c(O)c(O)c1 (stereo not drawn) [paeonianin C] | 14.6 µM and 15 µM | – | IC50 ([2]; read-out: IC50 (Viral)): 344 µM |
| O=C1O[C@H]2[C@H](OC(=O)c3cc(O)c(O)c(O)c3)[C@@H](OC(=O)c3cc(O)c(O)c4c3[C@@H]3C1=CC(=O)C(O)(O)C3(O)O4)[C@H](OC(=O)c1cc(O)c(O)c(O)c1)O[C@@H]2COC(=O)c1cc(O)c(O)c(O)c1 (stereo partly drawn) [terchebin] | 30.4 µM and 31 µM | 102 µM and 101 µM | fold higher inhibitory potency compared to paeonianin C [2]: 3.5 fold |
| O=C1OCC2OC(=O)c3cc(O)c(O)c(O)c3-c3c(O)c(O)c(O)c4c3C(=O)OC(C2OC(=O)c2cc(O)c(O)c(O)c2-c2c1cc(O)c(O)c2O)C1OC(=O)c2c-4c(O)c(O)c(O)c2C1O (stereo not drawn) [vescalagin] | 134 µM | – | – |
| CC(=O)N[C@H]1[C@H]([C@H](O)[C@H](O)CO)OC(C(=O)O)=C[C@@H]1N=C(N)N [zanamivir, 2,4-dideoxy-2,3-didehydro-4-guanidino-N-acetylneuraminic acid] | 51.2 µM and 52 µM | – | IC50 (bacterial VCNA): 51.2 µM; m (slope of the concentration–effect relationship) (bacterial VCNA; VCNA, median effect plot): 0.9; IC50 (Ruminococcus gnavus NA): 11900 µM; Ki [3]: 720 µM |

— PMC6150325 (Molecules : A Journal of Synthetic Chemistry and Natural …, 2017)
